Legend:
Format in all cases: in vivo
[1] = system: green peach aphid (Myzus persicae) (mixed life stages); assay: Action on green peach aphid, liquid artificial diet under artificial membrane; conditions: 72 h, 800 ppm, adult aphids on treated aphid diet, 3 days, read-out: mortality in comparison with untreated controls
Description: Example B8: Action on Green Peach Aphid (Myzus persicae) (Mixed Life Stages)
For evaluating control of green peach aphid (Myzus persicae) through systemic means the test unit consisted of 96-well-microtiter plates containing liquid artificial diet under an artificial membrane.
The compounds were formulated using a solution containing 75% v/v water and 25% v/v DMSO. Different concentrations of formulated compounds were pipetted into the aphid diet, using a custom built pipetter, at two replications.
After application, 5-8 adult aphids were placed on the artificial membrane inside the microtiter plate wells. The aphids were then allowed to suck on the treated aphid diet and incubated at about 23±1° C. and about 50±5% relative humidity for 3 days. Aphid mortality and fecundity was then visually assessed.

[2] = system: tobacco budworm (Heliothis virescens); assay: Action on tobacco budworm, eggs on insect diet in 96-well microtiter plates; conditions: 120 h, egg and larval mortality visually assessed after 5 days, read-out: mortality in comparison with untreated controls
Summary of the method: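 Compounds in 25% DMSO/water sprayed (10 μl) onto insect diet holding 15–25 H. virescens eggs, two replicates at several concentrations. Held 5 days at about 28±1 °C, 80±5% RH. Egg and larval mortality scored visually.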

[3] = system: vetch aphid (Megoura viciae); assay: Action on vetch aphid, broad bean leaf disks in 24-well microtiter plates; conditions: foliar, 120 h, adult aphids on treated leaf disks, 5 days, read-out: mortality in comparison with untreated controls
Procedure: Example B7: Action on Vetch Aphid (Megoura viciae)
For evaluating control of vetch aphid (Megoura viciae) through contact or systemic means the test unit consisted of 24-well-microtiter plates containing broad bean leaf disks.
The compounds were formulated using a solution containing 75% v/v water and 25% v/v DMSO. Different concentrations of formulated compounds were sprayed onto the leaf disks at 2.5 μl, using a custom built micro atomizer, at two replications.
After application, the leaf disks were air-dried and 5-8 adult aphids placed on the leaf disks inside the microtiter plate wells. The aphids were then allowed to suck on the treated leaf disks and incubated at about 23±1° C. and about 50±5% relative humidity for 5 days. Aphid mortality and fecundity was then visually assessed.

Measured: mortality at 800 ppm

Cc1ccc(C(C)C)c(N2C(=O)CS/C2=N\N=C\c2ccc3c(ccc4c3ncn4-c3ccc(OC(F)(F)F)cc3)n2)c1 [Compound C-6, (2Z)-3-(2-isopropyl-5-methyl-phenyl)-2-[(E)-[3-[4-(trifluoromethoxy)phenyl]imidazo[4,5-f]quinolin-7-yl]methylenehydrazono]thiazolidin-4-one]
≥ 75%: all assays above

— patent publication US10106558B2, “Azolobenzazine compounds, compositions comprising these compounds and their use for controlling invertebrate pests” (BASF SE, priority 2015, dated 2018)
